{"source": "patent US6552086B1", "about": "“Sulfonamide derivatives” (Eli Lilly and Company, priority 1998, dated 2003)", "target": "T1, human GluR4B receptor (Homo sapiens, UniProt P48058)", "T1 construct": "expressed in transfected cells", "T1 sequence (P48058 21-902)": "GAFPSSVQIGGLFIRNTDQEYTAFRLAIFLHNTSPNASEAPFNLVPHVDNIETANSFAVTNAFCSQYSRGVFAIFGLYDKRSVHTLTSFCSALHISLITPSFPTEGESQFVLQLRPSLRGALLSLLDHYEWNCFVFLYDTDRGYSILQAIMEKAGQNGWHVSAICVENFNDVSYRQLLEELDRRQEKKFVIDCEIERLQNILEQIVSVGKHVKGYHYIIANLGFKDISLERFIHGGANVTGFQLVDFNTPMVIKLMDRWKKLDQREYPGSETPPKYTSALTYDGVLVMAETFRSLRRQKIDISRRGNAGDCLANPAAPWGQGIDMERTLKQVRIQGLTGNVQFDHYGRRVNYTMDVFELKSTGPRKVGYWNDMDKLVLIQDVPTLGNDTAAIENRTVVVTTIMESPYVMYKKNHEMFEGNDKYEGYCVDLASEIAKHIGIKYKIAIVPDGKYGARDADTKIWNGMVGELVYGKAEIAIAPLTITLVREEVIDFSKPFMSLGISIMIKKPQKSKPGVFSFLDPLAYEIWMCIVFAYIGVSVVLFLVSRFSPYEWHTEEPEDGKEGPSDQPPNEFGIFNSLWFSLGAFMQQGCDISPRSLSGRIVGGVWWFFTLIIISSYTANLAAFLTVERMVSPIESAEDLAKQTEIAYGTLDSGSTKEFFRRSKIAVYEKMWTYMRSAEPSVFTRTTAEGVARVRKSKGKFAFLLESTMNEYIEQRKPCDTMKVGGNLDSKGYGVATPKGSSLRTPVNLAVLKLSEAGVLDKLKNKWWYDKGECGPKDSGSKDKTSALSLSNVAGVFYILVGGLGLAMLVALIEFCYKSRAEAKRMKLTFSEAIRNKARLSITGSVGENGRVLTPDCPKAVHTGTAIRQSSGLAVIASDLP", "test": "Potentiation of agonist-induced excitability of human GluR4B expressed in HEK 293 cells", "assay_type": "cell-based", "conditions": "human GluR4B receptor expressed in HEK 293 cells", "description": "The ability of compounds of formula I to potentiate glutamate receptor-mediated response may be determined using fluorescent calcium indicator dyes (Molecular Probes, Eugene, Oreg., Fluo-3) and by measuring glutamate-evoked efflux of calcium into GluR4 transfected HEK293 cells, as described in more detail below.\nIn one test, 96 well plates containing confluent monolayers of HEK cells stably expressing human GluR4B (obtained as described in European Patent Application Publication Number EP-A1-583917) are prepared. The tissue culture medium in the wells is then discarded, and the wells are each washed once with 200 μl of buffer (glucose, 10 mM, sodium chloride, 138 mM, magnesium chloride, 1 mM, potassium chloride, 5 mM, calcium chloride, 5 mM, N-[2-hydroxyethyl]-piperazine-N-[2-ethanesulfonic acid], 10 mM, to pH 7.1 to 7.3). […]\nEach test is then performed as follows. […] A second fluorescent reading is taken after 5 minutes incubation. 15 μl of 400 μM glutamate solution is then added to each well (final glutamate concentration 100 μM), and a third reading is taken. The activities of test compounds and cyclothiazide solutions are determined by subtracting the second from the third reading (fluorescence due to addition of glutamate in the presence or absence of test compound or cyclothiazide) and are expressed relative to enhance fluorescence produced by 100 μM cyclothiazide."}
{"smiles": "NS(=O)(=O)c1cc2c(cc1Cl)NC(C1CC3C=CC1C3)NS2(=O)=O", "note": "(stereo not shown) [cyclothiazide]", "values": [{"measurement": "potentiation of agonist-induced excitability", "result": "potentiate"}]}
